# Measured values from PubChem BioAssay (NCI).
#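 Each compound was tested at five concentrations against cells in 96-well plates for 48 hours. TGI: concentration producing complete growth inhibition.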
# Experiments:
# Test in all cases: DTP human tumour cell line panel, 48 h
# [1] = system: HT29 colon
# [2] = system: CAKI-1 renal
# [3] = system: COLO 205 colon
# [4] = system: HOP-92 NSCLC
# [5] = system: SR leukemia
# [6] = system: SK-MEL-2 melanoma
# [7] = system: OVCAR-4 ovarian
# [8] = system: MCF7 breast
# [9] = system: UACC-62 melanoma
# [10] = system: DU-145 prostate
# [11] = system: NCI-H23 lung
# [12] = system: OVCAR-3 ovarian
# [13] = system: HL-60(TB) leukemia
# [14] = system: EKVX NSCLC
# [15] = system: NCI-H522 lung
# [16] = system: U251 CNS
# [17] = system: UO-31 renal
# [18] = system: HOP-62 NSCLC
# [19] = system: KM12 colon
# [20] = system: OVCAR-8 ovarian
# [21] = system: TK-10 renal
# [22] = system: HCT-15 colon
# [23] = system: NCI-H460 lung
# [24] = system: BT-549 breast
# [25] = system: PC-3 prostate
# [26] = system: MOLT-4 leukemia
# [27] = system: SK-MEL-28 melanoma
# [28] = system: SK-OV-3 ovarian
# [29] = system: SF-295 CNS
# [30] = system: A549 NSCLC
# [31] = system: MDA-N
# [32] = system: SK-MEL-5 melanoma
# [33] = system: MALME-3M melanoma
# [34] = system: NCI-H226 lung
# [35] = system: M14 melanoma
# [36] = system: IGROV1 ovarian
# [37] = system: CCRF-CEM leukemia
# [38] = system: RXF 393 renal
# [39] = system: SNB-75 CNS
# [40] = system: SF-268 CNS
# [41] = system: SNB-19 CNS
# [42] = system: ACHN renal
# [43] = system: SN12C renal
# [44] = system: NCI/ADR-RES ovarian
# [45] = system: UACC-257 melanoma
# [46] = system: HCC-2998 colon
# [47] = system: SW-620 colon
# [48] = system: K-562 leukemia
# [49] = system: RPMI-8226 leukemia
# [50] = system: OVCAR-5 ovarian
# [51] = system: 786-0 renal
# [52] = system: SF-539 CNS
# [53] = system: HCT-116 colon
# [54] = system: T-47D breast
# [55] = system: A498 renal
# [56] = system: LOX IMVI melanoma
# [57] = system: MDA-MB-435
# [58] = system: HS 578T breast
# [59] = system: MDA-MB-231 breast
smiles,measurement,setting,value
COc1ccc(/C=C(\C#N)c2ccccn2)cc1OC,TGI,[1],> 100 µM
same,TGI,[2],> 100 µM
same,TGI,[3],> 100 µM
same,TGI,[4],48.7 µM
same,TGI,[5],> 100 µM
same,TGI,[6],> 100 µM
same,TGI,[7],> 100 µM
same,TGI,[8],72.6 µM
same,TGI,[9],> 100 µM
same,TGI,[10],> 100 µM
same,TGI,[11],> 100 µM
same,TGI,[12],> 100 µM
same,TGI,[13],> 100 µM
same,TGI,[14],56.9 µM
same,TGI,[15],> 100 µM
same,TGI,[16],42 µM
same,TGI,[17],82.2 µM
same,TGI,[18],> 100 µM
same,TGI,[19],> 100 µM
same,TGI,[20],> 100 µM
same,TGI,[21],> 100 µM
same,TGI,[22],> 100 µM
same,TGI,[23],> 100 µM
same,TGI,[24],45.4 µM
same,TGI,[25],65.7 µM
same,TGI,[26],> 100 µM
same,TGI,[27],> 100 µM
same,TGI,[28],> 100 µM
same,TGI,[29],85.3 µM
same,TGI,[30],> 100 µM
same,TGI,[31],> 100 µM
same,TGI,[32],> 100 µM
same,TGI,[33],> 100 µM
same,TGI,[34],95.8 µM
same,TGI,[35],> 100 µM
same,TGI,[36],> 100 µM
same,TGI,[37],> 100 µM
same,TGI,[38],> 100 µM
same,TGI,[39],84.9 µM
same,TGI,[40],> 100 µM
same,TGI,[41],> 100 µM
same,TGI,[42],> 100 µM
same,TGI,[43],> 100 µM
same,TGI,[44],55.7 µM
same,TGI,[45],> 100 µM
same,TGI,[46],> 100 µM
same,TGI,[47],> 100 µM
same,TGI,[48],> 100 µM
same,TGI,[49],> 100 µM
same,TGI,[50],> 100 µM
same,TGI,[51],> 100 µM
same,TGI,[52],> 100 µM
same,TGI,[53],> 100 µM
CCCNC(=O)c1cc(OC)c(OC)cc1NC(=O)C12CC3CC(CC(C3)C1)C2,TGI,[1],32.2 µM
same,TGI,[2],41.3 µM
same,TGI,[3],56.6 µM
same,TGI,[4],34.6 µM
same,TGI,[6],29.5 µM
same,TGI,[7],33.6 µM
same,TGI,[8],64.2 µM
same,TGI,[54],40.4 µM
same,TGI,[10],35.5 µM
same,TGI,[11],31.6 µM
same,TGI,[12],35.4 µM
same,TGI,[13],> 100 µM
same,TGI,[14],32.3 µM
same,TGI,[15],30 µM
same,TGI,[16],30.7 µM
same,TGI,[17],30.1 µM
same,TGI,[18],34.7 µM
same,TGI,[19],32 µM
same,TGI,[20],66.6 µM
same,TGI,[21],31.3 µM
same,TGI,[22],32.7 µM
same,TGI,[23],43.1 µM
same,TGI,[24],31.9 µM
same,TGI,[25],35.1 µM
same,TGI,[26],> 100 µM
same,TGI,[27],32.6 µM
same,TGI,[29],35.9 µM
same,TGI,[30],35.3 µM
same,TGI,[31],30.3 µM
same,TGI,[32],> 100 µM
same,TGI,[33],32.9 µM
same,TGI,[34],55 µM
same,TGI,[35],28.5 µM
same,TGI,[36],53.3 µM
same,TGI,[37],> 100 µM
same,TGI,[38],19.3 µM
same,TGI,[40],35 µM
same,TGI,[41],30 µM
same,TGI,[42],30.9 µM
same,TGI,[43],29.6 µM
same,TGI,[44],48.3 µM
same,TGI,[45],32.8 µM
same,TGI,[55],31.6 µM
same,TGI,[47],> 100 µM
same,TGI,[56],39.7 µM
same,TGI,[48],> 100 µM
same,TGI,[49],92.7 µM
same,TGI,[57],32.8 µM
same,TGI,[50],36.6 µM
same,TGI,[58],51.5 µM
same,TGI,[51],30.6 µM
same,TGI,[52],46.9 µM
same,TGI,[59],31.4 µM
same,TGI,[53],30.4 µM
